Results on 14 compounds are retold here after ChEMBL document CHEMBL1155993, “5-(2-Pyrimidinyl)-imidazo[1,2-a]pyridines are antibacterial agents targeting the ATPase domains of DNA gyrase and topoisomerase IV” (Bioorg Med Chem Lett, 2009).

The term IC50 denotes the concentration needed to halve the response being measured. Low readings indicate greater potency, high ones weaker potency. One may read the MIC as the least concentration at which growth counts as inhibited.

Values after ≈ are worked out from the molar mass of the structure shown.

One experiment concerns the target DNA gyrase subunit B (Streptococcus pneumoniae serotype 4 (strain ATCC BAA-334 / TIGR4), UniProt P0A4L9). The experiment can be described thus: Inhibition of Streptococcus pneumoniae SP-3 gyrB by enzyme coupled phosphate assay.
The test system of experiment [1] is Staphylococcus aureus. The experiment can be described thus: Antibacterial activity against Staphylococcus aureus UC76 by NCCLS method. It counts as functional, organism-based. Particulars: read-out: MIC.
For experiment [2], the system named is Streptococcus pneumoniae. The experiment can be described thus: Antibacterial activity against Streptococcus pneumoniae SP-3 by NCCLS method. It counts as functional.
For another experiment, the system named is Streptococcus pyogenes. The experiment can be described thus: Antibacterial activity against Streptococcus pyogenes SP1-1 by NCCLS method. It counts as functional.
Experiment [3] concerns Streptococcus pneumoniae. The experiment can be described thus: Antibacterial activity against fluoroquinolone resistant Streptococcus pneumoniae SP-3765 by NCCLS method. In kind it is functional.
Another experiment has as its target T1, ParE (Streptococcus pneumoniae, UniProt Q7X1P7).
T1 sequence (Q7X1P7 whole entry): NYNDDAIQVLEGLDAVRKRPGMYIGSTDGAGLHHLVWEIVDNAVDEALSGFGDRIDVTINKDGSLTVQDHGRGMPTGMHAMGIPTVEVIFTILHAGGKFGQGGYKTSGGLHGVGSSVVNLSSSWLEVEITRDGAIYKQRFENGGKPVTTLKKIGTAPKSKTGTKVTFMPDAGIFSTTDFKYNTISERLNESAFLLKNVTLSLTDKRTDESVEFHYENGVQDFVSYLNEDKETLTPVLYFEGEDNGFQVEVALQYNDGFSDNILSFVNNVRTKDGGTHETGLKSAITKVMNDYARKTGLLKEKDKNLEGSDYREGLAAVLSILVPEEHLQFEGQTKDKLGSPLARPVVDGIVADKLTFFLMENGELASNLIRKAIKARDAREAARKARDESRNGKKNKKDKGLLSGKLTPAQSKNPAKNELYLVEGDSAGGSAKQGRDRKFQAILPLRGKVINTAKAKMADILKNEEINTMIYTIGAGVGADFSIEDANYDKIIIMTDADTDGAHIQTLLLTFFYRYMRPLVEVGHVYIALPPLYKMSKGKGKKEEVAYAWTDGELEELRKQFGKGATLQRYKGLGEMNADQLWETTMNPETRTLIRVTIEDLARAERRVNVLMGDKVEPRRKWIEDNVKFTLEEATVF
The experiment can be described thus: Inhibition of Streptococcus pneumoniae SP-3 parE after 30 mins.

Experiment [4] relates to Staphylococcus aureus. The experiment can be described thus: Antibacterial activity against methicillin resistant Staphylococcus aureus SA-1417 by NCCLS method. In kind it is functional.

DNA gyrase subunit B, sequence (P0A4L9 whole entry): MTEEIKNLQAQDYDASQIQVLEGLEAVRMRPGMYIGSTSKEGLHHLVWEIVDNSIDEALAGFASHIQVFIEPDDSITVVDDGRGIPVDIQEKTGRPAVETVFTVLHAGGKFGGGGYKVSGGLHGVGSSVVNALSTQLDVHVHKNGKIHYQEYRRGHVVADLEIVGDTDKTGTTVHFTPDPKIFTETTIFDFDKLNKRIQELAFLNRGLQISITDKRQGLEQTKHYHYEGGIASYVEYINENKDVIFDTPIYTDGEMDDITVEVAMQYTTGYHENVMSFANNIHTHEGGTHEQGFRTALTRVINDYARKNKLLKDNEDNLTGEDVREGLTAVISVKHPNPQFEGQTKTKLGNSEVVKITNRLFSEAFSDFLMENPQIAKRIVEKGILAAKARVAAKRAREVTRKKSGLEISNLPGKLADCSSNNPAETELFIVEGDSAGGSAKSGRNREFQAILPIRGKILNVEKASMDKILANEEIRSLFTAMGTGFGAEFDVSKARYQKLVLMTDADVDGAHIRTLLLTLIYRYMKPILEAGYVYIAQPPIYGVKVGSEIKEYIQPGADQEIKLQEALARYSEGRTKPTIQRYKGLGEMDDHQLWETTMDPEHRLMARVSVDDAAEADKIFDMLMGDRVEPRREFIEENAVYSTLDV

Regarding `CCNC(=O)Nc1cn2c(-c3ncccn3)cc(-c3cnc(N(C)C)nc3)cc2n1`, the concentration for half-maximal inhibition (IC50) stood at 137 nM against DNA gyrase subunit B and 611 nM on ParE. The MIC in the experiment on Staphylococcus aureus [1] worked out at 1 µg/mL (≈ 2.48 µM); with Streptococcus pneumoniae [2], 0.125 µg/mL (≈ 0.31 µM); against Streptococcus pyogenes, 0.25 µg/mL (≈ 0.62 µM); with Streptococcus pneumoniae [3], 0.125 µg/mL (≈ 0.31 µM).
`CNC(=O)Nc1cn2c(-c3ncc(C)cn3)cc(-c3cccnc3)cc2n1`: the 50% inhibitory concentration (IC50) against DNA gyrase subunit B worked out at 92 nM; against ParE, 629 nM. Further, the MIC turned out to be 4 µg/mL (≈ 11.1 µM) in the experiment on Staphylococcus aureus [1], 1 µg/mL (≈ 2.78 µM) against Streptococcus pneumoniae [2], 2 µg/mL (≈ 5.56 µM) with Streptococcus pyogenes and 0.25 µg/mL (≈ 0.696 µM) in the experiment on Streptococcus pneumoniae [3].
For the compound `CCOC(=O)Nc1cn2c(-c3nccc(C)n3)cc(-c3cnc(N(C)C)nc3)cc2n1`, the figures for the IC50 against DNA gyrase subunit B and against ParE were 1380 nM and 6220 nM, respectively. Moreover, the minimal inhibitory concentration (MIC) in the experiment on Staphylococcus aureus [1] was 64 µg/mL (≈ 153 µM); against Streptococcus pneumoniae [2], 0.5 µg/mL (≈ 1.19 µM); in the experiment with Streptococcus pyogenes it was 0.25 µg/mL (≈ 0.597 µM); in the experiment with Streptococcus pneumoniae [3], 0.125 µg/mL (≈ 0.299 µM).
`CCNC(=O)Nc1cn2c(-c3nccc(C)n3)cc(-c3cnc(N(C)C)nc3)cc2n1`: the concentration for half-maximal inhibition (IC50) against DNA gyrase subunit B is 113 nM; on ParE, 424 nM. For the same compound, the MIC was 0.5 µg/mL (≈ 1.2 µM) in the experiment on Staphylococcus aureus [1], 0.25 µg/mL (≈ 0.599 µM) with Streptococcus pneumoniae [2], 0.25 µg/mL (≈ 0.599 µM) against Streptococcus pyogenes and 0.125 µg/mL (≈ 0.299 µM) against Streptococcus pneumoniae [3].
Consider `Cc1cnc(-c2cc(-c3cccnc3)cc3nc(NC(=O)N(C)C(F)(F)F)cn23)nc1`, for which the 50% inhibitory concentration (IC50) against DNA gyrase subunit B came out at 368 nM; at ParE it was 504 nM. For the same compound, the MIC with Staphylococcus aureus [1] is 8 µg/mL (≈ 18.7 µM); against Staphylococcus aureus [4], 4 µg/mL (≈ 9.36 µM); in the experiment on Streptococcus pneumoniae [2], 0.25 µg/mL (≈ 0.585 µM); with Streptococcus pyogenes, 16 µg/mL (≈ 37.4 µM); against Streptococcus pneumoniae [3], 0.125 µg/mL (≈ 0.292 µM).
Consider `CCNC(=O)Nc1cn2c(-c3ncc(CC)cn3)cc(-c3cccnc3)cc2n1`, for which the figures for the IC50 at DNA gyrase subunit B and on ParE were 353 nM and 265 nM, respectively. In addition, the MIC with Staphylococcus aureus [1] came out at 0.25 µg/mL (≈ 0.645 µM); in the experiment with Staphylococcus aureus [4], 1 µg/mL (≈ 2.58 µM); in the experiment on Streptococcus pneumoniae [2], 0.06 µg/mL (≈ 0.155 µM); in the experiment with Streptococcus pyogenes it was 0.125 µg/mL (≈ 0.323 µM); in the experiment on Streptococcus pneumoniae [3] it was 0.06 µg/mL (≈ 0.155 µM).
On to `CCCCNC(=O)Nc1cn2c(-c3ncc(C)cn3)cc(-c3cccnc3)cc2n1`, for which the half-inhibitory concentration (IC50) at DNA gyrase subunit B turned out to be 261 nM; on ParE, 4750 nM. The MIC is 8 µg/mL (≈ 19.9 µM) in the experiment with Staphylococcus aureus [1], 2 µg/mL (≈ 4.98 µM) with Streptococcus pneumoniae [2], 2 µg/mL (≈ 4.98 µM) with Streptococcus pyogenes and 0.125 µg/mL (≈ 0.311 µM) against Streptococcus pneumoniae [3].
On to `CCNC(=O)Nc1cn2c(-c3nc(C)cc(C)n3)cc(-c3cccnc3)cc2n1`, for which the figures for the IC50 against DNA gyrase subunit B and on ParE were 198 nM and 541 nM, respectively. Also, the minimum inhibitory concentration (MIC) was determined as 1 µg/mL (≈ 2.58 µM) with Staphylococcus aureus [1]; 4 µg/mL (≈ 10.3 µM) with Staphylococcus aureus [4]; 0.5 µg/mL (≈ 1.29 µM) in the experiment with Streptococcus pneumoniae [2]; 1 µg/mL (≈ 2.58 µM) against Streptococcus pyogenes; 0.5 µg/mL (≈ 1.29 µM) against Streptococcus pneumoniae [3].
In the case of `CCNC(=O)Nc1cn2c(-c3ncccn3)cc(-c3cncnc3)cc2n1`, the IC50 was 75 nM on DNA gyrase subunit B and 280 nM on ParE. Also, the MIC in the experiment on Staphylococcus aureus [1] was determined as 0.5 µg/mL (≈ 1.39 µM); against Streptococcus pneumoniae [2], 0.125 µg/mL (≈ 0.347 µM); with Streptococcus pyogenes, 0.5 µg/mL (≈ 1.39 µM); with Streptococcus pneumoniae [3], 0.125 µg/mL (≈ 0.347 µM).
Take `CCNC(=O)Nc1cn2c(-c3ncc(C)cn3)cc(-c3cncnc3)cc2n1`: the IC50 on DNA gyrase subunit B is 36 nM; against ParE, 258 nM. Also, the MIC with Staphylococcus aureus [1] is 0.25 µg/mL (≈ 0.668 µM); in the experiment on Staphylococcus aureus [4], 1 µg/mL (≈ 2.67 µM); with Streptococcus pneumoniae [2], 0.25 µg/mL (≈ 0.668 µM); against Streptococcus pyogenes it was 0.5 µg/mL (≈ 1.34 µM); with Streptococcus pneumoniae [3], 0.06 µg/mL (≈ 0.16 µM).
As for `CCNC(=O)Nc1cn2c(-c3nc(C)cc(C(F)(F)F)n3)cc(-c3cccnc3)cc2n1`, the IC50 at DNA gyrase subunit B was found to be 216 nM; on ParE, 546 nM. The MIC in the experiment with Staphylococcus aureus [1] was found to be 0.5 µg/mL (≈ 1.13 µM); with Staphylococcus aureus [4], 1 µg/mL (≈ 2.27 µM); in the experiment on Streptococcus pneumoniae [2], 0.25 µg/mL (≈ 0.566 µM); against Streptococcus pyogenes, 0.5 µg/mL (≈ 1.13 µM); with Streptococcus pneumoniae [3] it was 0.125 µg/mL (≈ 0.283 µM).
Regarding `CCNC(=O)Nc1cn2c(-c3nc(C(F)(F)F)cc(C(F)(F)F)n3)cc(-c3cccnc3)cc2n1`, the IC50 against DNA gyrase subunit B came to 242 nM; at ParE, 745 nM. Further, the minimum inhibitory concentration (MIC) was determined as 2 µg/mL (≈ 4.04 µM) in the experiment with Staphylococcus aureus [1]; 4 µg/mL (≈ 8.07 µM) with Staphylococcus aureus [4]; 0.25 µg/mL (≈ 0.505 µM) in the experiment on Streptococcus pneumoniae [2]; 1 µg/mL (≈ 2.02 µM) in the experiment with Streptococcus pyogenes; 0.125 µg/mL (≈ 0.252 µM) with Streptococcus pneumoniae [3].
For `CCNC(=O)Nc1cn2c(-c3ncc(F)cn3)cc(-c3cccnc3)cc2n1`, the 50% inhibitory concentration (IC50) at DNA gyrase subunit B is 56 nM; on ParE it was 364 nM. Further, the minimal inhibitory concentration (MIC) in the experiment on Staphylococcus aureus [1] was determined as 1 µg/mL (≈ 2.65 µM); in the experiment with Streptococcus pneumoniae [2], 0.125 µg/mL (≈ 0.331 µM); in the experiment on Streptococcus pyogenes, 0.5 µg/mL (≈ 1.32 µM); in the experiment on Streptococcus pneumoniae [3], 0.125 µg/mL (≈ 0.331 µM).
`CCNC(=O)Nc1cn2c(-c3nccc(C(=O)OC)n3)cc(-c3cccnc3)cc2n1`: the results for the IC50 against DNA gyrase subunit B and at ParE were 52 nM and 911 nM, respectively. Further, the MIC in the experiment on Staphylococcus aureus [1] turned out to be 8 µg/mL (≈ 19.2 µM); against Staphylococcus aureus [4] it was 8 µg/mL (≈ 19.2 µM); against Streptococcus pneumoniae [2], 16 µg/mL (≈ 38.3 µM); in the experiment on Streptococcus pyogenes, 32 µg/mL (≈ 76.7 µM); against Streptococcus pneumoniae [3], 16 µg/mL (≈ 38.3 µM).
